Assay results: article PMC6099574, “Synthesis, Design, and Structure–Activity Relationship of the Pyrimidone Derivatives as Novel Selective Inhibitors of Plasmodium falciparum Dihydroorotate Dehydrogenase” (Molecules : A Journal of Synthetic Chemistry and Natural …, 2018)
Read-outs that look alike come from different tables or passages of the source.

Legend:
PfDHODH (Phe158–Ser569) [1] = biological target: T1, PfDHODH (Phe158–Ser569) (Plasmodium falciparum, UniProt Q08210); experiment: In vitro enzyme assay, PfDHODH (DCIP reduction); type: biochemical; conditions: for inhibitory activity against PfDHODH (in words): qualitative statement
T1 construct: enzyme activity determination of PfDHODH (Phe158–Ser569) and hDHODH (Met30–Arg396); made in house
Description: Protein expression, purification, and enzyme activity determination of PfDHODH (Phe158–Ser569) and hDHODH (Met30–Arg396) were performed according to our previous work. The enzymes were diluted to a final concentration of 10 nM using the assay buffer containing 50 mM HEPES (pH 8.0), 150 mM KCl, 0.1% Triton X-100 supplemented with 100 µM UQ0, and 120 µM DCIP. The mixture was transferred into a 96-well plate and incubated with or without various amounts of inhibitors for 5 min at room temperature, and then the dihydroorotate was added to a final concentration of 500 µM to initiate the reaction. The reaction was monitored by measuring the decrease in DCIP in the absorption at 600 nm at each 30 s over a period of 6 min. […] Percent inhibition relative to no inhibitor control was calculated by (1 − Vi/V0) × 100. For the determination of the IC50 value of the inhibitor, eight or nine different concentrations were applied. Each inhibitor concentration point was tested in triplicate, and the IC50 values were calculated using the sigmoidal fitting option of the program Origin 8.0 (Originlab, Northampton, MA, US).

hDHODH (Met30–Arg396) [2] = biological target: T2, hDHODH (Met30–Arg396) (Homo sapiens, UniProt Q02127); experiment: In vitro enzyme assay, hDHODH (DCIP reduction); type: biochemical; conditions: for IC50: in vitro enzyme assay
T2 construct: enzyme activity determination of PfDHODH (Phe158–Ser569) and hDHODH (Met30–Arg396); made in house
Description: Protein expression, purification, and enzyme activity determination of PfDHODH (Phe158–Ser569) and hDHODH (Met30–Arg396) were performed according to our previous work. The enzymes were diluted to a final concentration of 10 nM using the assay buffer containing 50 mM HEPES (pH 8.0), 150 mM KCl, 0.1% Triton X-100 supplemented with 100 µM UQ0, and 120 µM DCIP. The mixture was transferred into a 96-well plate and incubated with or without various amounts of inhibitors for 5 min at room temperature, and then the dihydroorotate was added to a final concentration of 500 µM to initiate the reaction. The reaction was monitored by measuring the decrease in DCIP in the absorption at 600 nm at each 30 s over a period of 6 min. Brequinar and DSM1 were measured as the positive controls for hDHODH and PfDHODH, respectively. Percent inhibition relative to no inhibitor control was calculated by (1 − Vi/V0) × 100. For the determination of the IC50 value of the inhibitor, eight or nine different concentrations were applied. Each inhibitor concentration point was tested in triplicate, and the IC50 values were calculated using the sigmoidal fitting option of the program Origin 8.0 (Originlab, Northampton, MA, US).

PfDHODH (Phe158–Ser569) [3] = biological target: T1, PfDHODH (Phe158–Ser569); design: method as in PMID 24073986; conditions: previous work; read-out: IC50 against PfDHODH; cited from earlier work
hDHODH (Met30–Arg396) [4] = biological target: T2, hDHODH (Met30–Arg396); design: method as in PMID 24073986; conditions: previous work; cited from earlier work
3D7 cells = tested on: 3D7 cells; design: method as in PMID 24073986; conditions: read-out: IC50 parasite growth in vitro, 3D7 cells; cited from earlier work
Dd2 cells = tested on: Dd2 cells; design: method as in PMID 24073986; conditions: read-out: IC50 parasite growth in vitro, Dd2 cells; cited from earlier work
[5] = design: method as in PMID 24073986; conditions: cited from earlier work
[6] = design: method as in PMID 24073986; conditions: cited from earlier work; remark: listed apart in the source
[7] = design: method as in PMID 27641613; conditions: compared with DSM 265; cited from earlier work
[8] = design: method as in PMID 27641613; conditions: compared with DSM 265; cited from earlier work; remark: listed apart in the source
[9] = design: method as in PMID 27641613; conditions: compared with DSM 265; cited from earlier work; remark: listed apart in the source
[10] = in vitro enzyme assay, read-out: IC50 (μM) PfDHODH

T1 sequence (Q08210 158-569): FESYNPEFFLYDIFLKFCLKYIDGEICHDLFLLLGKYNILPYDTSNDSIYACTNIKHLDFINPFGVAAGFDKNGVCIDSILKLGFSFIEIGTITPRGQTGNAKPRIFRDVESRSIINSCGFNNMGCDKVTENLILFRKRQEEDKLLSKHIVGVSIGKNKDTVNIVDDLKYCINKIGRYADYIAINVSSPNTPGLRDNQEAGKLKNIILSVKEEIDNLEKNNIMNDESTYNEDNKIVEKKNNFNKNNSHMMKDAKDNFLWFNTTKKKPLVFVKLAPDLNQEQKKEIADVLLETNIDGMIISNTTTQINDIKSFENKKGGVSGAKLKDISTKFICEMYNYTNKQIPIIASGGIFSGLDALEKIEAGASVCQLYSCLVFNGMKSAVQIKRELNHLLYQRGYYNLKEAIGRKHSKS
T2 sequence (Q02127 29-395 limits assumed): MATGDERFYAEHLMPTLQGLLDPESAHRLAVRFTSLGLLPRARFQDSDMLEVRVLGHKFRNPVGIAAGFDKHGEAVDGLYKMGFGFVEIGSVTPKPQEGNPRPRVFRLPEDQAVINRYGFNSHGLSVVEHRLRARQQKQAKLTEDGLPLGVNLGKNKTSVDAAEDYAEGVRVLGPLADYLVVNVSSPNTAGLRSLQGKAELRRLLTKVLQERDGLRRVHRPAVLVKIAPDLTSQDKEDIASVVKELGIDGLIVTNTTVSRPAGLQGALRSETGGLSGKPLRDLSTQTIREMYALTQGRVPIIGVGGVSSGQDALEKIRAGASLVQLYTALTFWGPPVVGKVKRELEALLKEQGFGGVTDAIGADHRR

Row | SMILES | IC50 (PfDHODH (Phe158–Ser569) [1]; [10]) | IC50 (hDHODH (Met30–Arg396) [2]) | melting point | further results
1 | CNC(=O)C1=C(Nc2ccc3ccccc3c2)OCC1=O [Compound 14, N-Methyl-2-(naphthalen-2-ylamino)-4-oxo-4,5-dihydrofuran-3-carboxamide] | 9 ± 1 µM | > 10 µM | 126.3 to 126.9 °C | –
2 | CCNC(=O)C1=C(Nc2ccc3c(c2)CCC3)OCC1=O [Compound 13, 2-[(2,3-Dihydro-1H-inden-5-yl)amino]-N-ethyl-4-oxo-4,5-dihydrofuran-3-carboxamide] | > 10 µM | > 10 µM | 127.7 to 128.2 °C | –
3 | CCNC(=O)C1=C(Nc2ccccc2)OCC1=O [Compound 12, N-Ethyl-4-oxo-2-(phenylamino)-4,5-dihydrofuran-3-carboxamide] | > 10 µM | 2.4 ± 0.1 µM | 146.9 to 147.4 °C | inhibitory activity against PfDHODH (in words) (PfDHODH (Phe158–Ser569) [1]): inactive
4 | CCN1CN(c2ccc3ccccc3c2)C2=C(C(=O)CO2)C1=O [Compound 23, 3-Ethyl-1-(naphthalen-2-yl)-2,3-dihydrofuro[2,3-d]pyrimidine-4,5(1H,6H)-dione] | 4 ± 1 µM | > 10 µM | 128.3 to 129 °C | –
5 | NNC(=O)C1=C(Nc2ccc3ccccc3c2)OCC1=O [Compound 20, 2-(Naphthalen-2-ylamino)-4-oxo-4,5-dihydrofuran-3-carbohydrazide] | 0.07 ± 0.01 µM | > 10 µM | 167.3 to 167.9 °C | –
6 | CCN1CN(c2ccc3c(c2)CCC3)C2=C(C(=O)CO2)C1=O [Compound 21, 1-(2,3-Dihydro-1H-inden-5-yl)-3-ethyl-2,3-dihydrofuro[2,3-d]pyrimidine-4,5(1H,6H)-dione] | > 10 µM | > 10 µM | 128.6 to 129.4 °C | –
7 | O=C1COC(Nc2ccc3ccccc3c2)=C1C(=O)NC1CC1 [Compound 18, N-Cyclopropyl-2-(naphthalen-2-ylamino)-4-oxo-4,5-dihydrofuran-3-carboxamide] | 6 ± 1 µM | > 10 µM | 140.8 to 141.6 °C | –
8 | CN1CN(c2ccc3ccccc3c2)C2=C(C(=O)CO2)C1=O [Compound 22, 3-Methyl-1-(naphthalen-2-yl)-2,3-dihydrofuro[2,3-d]pyrimidine-4,5(1H,6H)-dione] | 8 ± 1 µM | > 10 µM | 127.9 to 128.5 °C | –
9 | NN1CN(c2ccc3ccccc3c2)C2=C(C(=O)CO2)C1=O [Compound 26, 3-Amino-1-(naphthalen-2-yl)-2,3-dihydrofuro[2,3-d]pyrimidine-4,5(1H,6H)-dione] | 0.023 ± 0.001 µM | > 10 µM | 168.4 to 169.2 °C | fold more active against PfDHODH than compound 20 (PfDHODH (Phe158–Ser569) [1]; compared with compound 20): 3 fold; species selectivity over hDHODH (hDHODH (Met30–Arg396) [2]; PfDHODH versus hDHODH): > 400 fold
10 | CCOC(=O)C1=C(Nc2ccc3ccccc3c2)OCC1=O [Compound 10] | – | – | – | IC50 (PfDHODH (Phe158–Ser569) [3]): 0.006 µM; species selectivity over hDHODH (hDHODH (Met30–Arg396) [4]): > 14,000 fold; IC50 (3D7 cells): 0.015 µM; IC50 (Dd2 cells): 0.018 µM; efficacy in vivo (in words) [5]: less effective in vivo; metabolic properties (in words) [6]: poor metabolic properties
11 | O=C1COC2=C1C(=O)N(C1CC1)CN2c1ccc2ccccc2c1 [Compound 25, 3-Cyclopropyl-1-(naphthalen-2-yl)-2,3-dihydrofuro[2,3-d]pyrimidine-4,5(1H,6H)-dione] | – | > 10 µM | 128.8 to 129.5 °C | IC50 (PfDHODH (Phe158–Ser569) [1]): 5 ± 1 µM
12 | CCCN1CN(c2ccc3ccccc3c2)C2=C(C(=O)CO2)C1=O [Compound 24, 1-(Naphthalen-2-yl)-3-propyl-2,3-dihydrofuro[2,3-d]pyrimidine-4,5(1H,6H)-dione] | 12 ± 6 µM | > 10 µM | 128.6 to 129.7 °C | –
13 | Cc1cc(Nc2ccc(C(F)(F)F)nc2)n2nc(C(C)(F)F)nc2n1 [Compound 9] | – | – | – | solubility (in words) [7]: improved solubility; intrinsic clearance (in words) [8]: lower intrinsic clearance; plasma exposure after oral dosing (in words) [9]: increased plasma exposure after oral dosing
14 | CCNC(=O)C1=C(Nc2ccc3ccccc3c2)OCC1=O [Compound 15, N-Ethyl-2-(naphthalen-2-ylamino)-4-oxo-4,5-dihydrofuran-3-carboxamide] | 4.8 ± 0.4 µM | > 10 µM | 121.8 to 123 °C | –
15 | O=C(O)C1=C(Nc2ccc3ccccc3c2)OCC1=O [Compound 11, 2-(Naphthalen-2-ylamino)-4-oxo-4,5-dihydrofuran-3-carboxylic acid] | 0.106 ± 0.009 µM | > 10 µM | 164.4 to 165 °C | inhibitory activity against PfDHODH (in words) (PfDHODH (Phe158–Ser569) [1]): lower inhibitory activity in comparison with 10
16 | CCCNC(=O)C1=C(Nc2ccc3ccccc3c2)OCC1=O [Compound 16, 2-(Naphthalen-2-ylamino)-4-oxo-N-propyl-4,5-dihydrofuran-3-carboxamide] | > 10 µM | > 10 µM | – | inhibitory activity against PfDHODH (in words) (PfDHODH (Phe158–Ser569) [1]): lost their activities
17 | O=C1COC(Nc2ccc3ccccc3c2)=C1C(=O)NCC1CC1 [Compound 19, N-(Cyclopropylmethyl)-2-(naphthalen-2-ylamino)-4-oxo-4,5-dihydrofuran-3-carboxamide] | > 10 µM | > 10 µM | 164.8 to 165.3 °C | inhibitory activity against PfDHODH (in words) (PfDHODH (Phe158–Ser569) [1]): lost the inhibitory activity
